From patent US10196360B2, “Crystal forms of bedaquiline fumarate and preparation methods therefor” (Zhejiang Hisun Pharmaceutical Co., Ltd., priority 2015, dated 2019)

Legend:
[1] = Solubility of the crystal forms in different solvents at 50° C.; type: physicochemical
[2] = Particle size test (Mastersizer 2000); type: physicochemical; conditions: non-micronized, dispersant n-hexane, fumarate
Procedure: The test conditions for the particle size involved in the present invention are: Mastersizer model: Mastersizer 2000; operation method: 20 mg of bedaquiline fumarate sample is taken, about 5.0 ml dispersant (n-hexane) is added, the sample is subjected to ultrasonication for 1.0 min, is allowed to stabilize for 0.5-1.0 min and then is tested.
Test Procedure: the Hydro2000SM injector was connected and the Small Volume Sample Dispersion Unit tachometer was turned on, then a suitable amount of ethanol was added to the sample cell to clean the detection channel of the instrument. A suitable amount of n-hexane (dispersant) was added to the dispersion cup, a suitable amount of n-hexane (dispersant) was inlet into the instrument to exhaust gas, the stirring rate was set to 2950 rpm, optical correction and background measurement were carried out.
The suspension was added to the sample cell until the opacity was between 15% to 20%, the suspension was allowed to stabilize for 0.5-1.0 min, the measurement time was 4 sec, the test results was saved automatically by the system.

[3] = N,N-dimethylformamide, fumarate

solubility ([1]; Methanol, fumarate) [mg/mL]	solubility [1, 3] [mg/mL]	solubility ([1]; Tetrahydrofuran, fumarate) [mg/mL]	solubility ([1]; Water)	D (0.1) [2] [um]	D (0.5) [2] [um]	D (0.9) [2] [um]	Compound
2000	1000	1000	insoluble	4.991	16.303	37.967	COc1nc2ccc(Br)cc2cc1[C@@H](c1ccccc1)[C@@](O)(CCN(C)C)c1cccc2ccccc12.O=C(O)/C=C/C(=O)O [Crystal form I, (1R,2S)-1-(6-bromo-2-methoxyquinolin-3-yl)-4-dimethylamino-1-phenyl-2-(1-naphthyl)-2-butanol fumarate]
6000	3000	3000	insoluble	10.034	33.721	68.295	COc1nc2ccc(Br)cc2cc1[C@@H](c1ccccc1)[C@@](O)(CCN(C)C)c1cccc2ccccc12.O=C(O)/C=C/C(=O)O [Crystal form III, (1R,2S)-1-(6-bromo-2-methoxyquinolin-3-yl)-4-dimethylamino-1-phenyl-2-(1-naphthyl)-2-butanol fumarate]
6000	2000	5000	insoluble	3.146	12.646	37.019	COc1nc2ccc(Br)cc2cc1[C@@H](c1ccccc1)[C@@](O)(CCN(C)C)c1cccc2ccccc12.O=C(O)/C=C/C(=O)O [Crystal form II, (1R,2S)-1-(6-bromo-2-methoxyquinolin-3-yl)-4-dimethylamino-1-phenyl-2-(1-naphthyl)-2-butanol fumarate]
